Reference: patent USRE35321E, “Tetrazoleacetic acid derivatives having aldose reductase inhibitory activity” (Wakamoto Pharmaceutical Co., Ltd., priority 1990, dated 1996)
pIC50: −log10 of the molar value.

Tests used:
aldose reductase = target: T1, aldose reductase (Rattus norvegicus, UniProt P07943); test: Aldose reductase inhibitory effect (enzyme from crystalline lenses, DL-glyceraldehyde substrate); assay type: biochemical, rat (male SD); details: 10 mM DL-glyceraldehyde, pH 6.2, 30° C.
T1 construct: Then their crystalline lenses were immediately removed and stored at -80° C; The lenses were homogenized; from tissue; host or cells: crystalline lenses of six-week-old male SD rats
Protocol: Six-weeks-old male SD rates were anesthetized with ether and killed. Then their crystalline lenses were immediately removed and stored at -80° C. […] All operations were conducted at 4° C. and the enzyme solution was stored at -80° C.
More specifically, 0.1 ml of DL glyceraldehyde (final concentration: 10 mM) was added to 0.9 ml of 100 mM sodium potassium phosphate buffer (pH 6.2) which contained lithium sulfate (final concentration: 400 mM), reduced nicotinamide adenine dinucleotide phosphate (final concentration: 0.15 mM), the enzyme solution, and the compound to be evaluated (final concentration: 10^-6 M, 10^-7 M or […]), and then the reaction was conducted at 30° C. for 5 minutes. During the reaction, the change in the absorbance at 340 nm with time was monitored. The maximum reducing rate of the absorbance (U) during the reaction was determined. By subtracting, from this value, the maximum reducing rate (Uo) at 340 nm of the reaction solution before the addition of the substrate (DL-glyceraldehyde), the reaction rate (V=U-Uo) was calculated as a true reaction rate in the presence of the compound to be tested.
The same procedure was repeated except for the absence of the compound to be tested. A true reaction rate (Vo) in case the enzyme was not inhibited was calculated (Vo =U'-Uo '). The aldose reductase inhibitory activity of the test compounds was determined according to the following formula:
Rate of Inhibition (%)=(Vo -V)/Vo ×100

[1] = test system: accumulation of sorbitol in sciatic nerve; test: Inhibiting the accumulation of sorbitol in sciatic nerve of streptozotocin diabetic rats; assay type: in vivo, Sprague-Dawley male rats; details: twice a day for 5 days
Protocol: Groups of 6 to 8-weeks-old Sprague-Dawley male rats (4 aminals per group) were fasted for 18 hours and streptozotocin was injected through the tail vein in a dose of 60 mg/kg to thus obtain diabetic rats. Immediately after the administration of the streptozotocin, each compound to be tested was orally administered to these rats in the form of a suspension at a dose of 10 mg/kg, 30 mg/kg and 50 mg/kg (each was suspended in a 0.5% sodium carboxymethyl cellulose solution) twice a day (9 o'clock in the morning and 5 o'clock in the afternoon) for 5 days. During the test, the rats took diet and drank water freely. 4 Hours after the final administration of the drug in the 5th day's morning (9 o'clock in the morning), the rats were sacrificed and then the sciatic nerve thereof was removed to determine the amount of sorbitol accumulated therein.
The results are expressed in the percentage obtained while the value obtained on the control to which any drug was not administered is defined to be 100.

Row | pIC50 (aldose reductase) | SMILES | also measured
1 | 7.64 | CCCCc1ccc(-c2nnnn2CC(=O)O)s1 [Example 2-20, [5-(5-butyl-2-thienyl)tetrazol-1-yl] acetic acid] | 
2 | 7.62 | Cc1csc(-c2nnnn2CC(=O)O)c1 [Example 2-3, [5-(4-methyl-2-thienyl)tetrazol-1-yl] acetic acid] | 
3 | 7.55 | O=C(O)Cn1nnnc1-c1ccc(CCCc2ccccc2)s1 [Example 2-21, [5-(5-phenylpropyl-2-thienyl)tetrazol-1-yl] acetate acid] | 
4 | 7.54 | COc1ccsc1-c1nnnn1CC(=O)O [Example 2-15, [5-(3-methoxy-2-thienyl)tetrazol-1-yl] acetic acid] | 
5 | 6.24 | CCOC(=O)Cn1nnnc1-c1ccsc1 [Example 3-2, ethyl [5-(3-thienyl)tetrazol-1-yl] acetate] | 
6 | 7.51 | COCc1ccc(-c2nnnn2CC(=O)O)s1 [Example 2-22, [5-(5-methoxymethyl-2-thienyl)tetrazol-1-yl] acetic acid] | 
7 | 7.60 | O=C(O)Cn1nnnc1-c1ccc(CBr)s1 [Example 2-13, [5-(5-bromomethyl-2-thienyl)tetrazol-1-yl] acetic acid] | 
8 | 7.52 | O=C(O)Cn1nnnc1-c1ccoc1 [Example 2-7, [5-(3-furyl)tetrazol-1-yl] acetic acid] | Rate of Inhibition of Sorbitol Accumulation ([1]; 10 mg/kg oral): 46%; Rate of Inhibition of Sorbitol Accumulation ([1]; 30 mg/kg oral): 77%
9 | 6.34 | CCN(CC)S(=O)(=O)c1sccc1-c1nnnn1CC(=O)O [Example 2-38, [5-[2-(N,N-diethylaminosulfonyl)-3-thienyl)tetrazol-1-yl] acetic acid] | 
10 | 7.80 | O=C(O)Cn1nnnc1-c1cccs1 [Example 2-1, [5-(2-thienyl)tetrazol-1-yl] acetic acid] | Rate of Inhibition of Sorbitol Accumulation ([1]; 10 mg/kg oral): 68%; Rate of Inhibition of Sorbitol Accumulation ([1]; 30 mg/kg oral): 89%
11 | 6.52 | C[S+]([O-])c1sccc1-c1nnnn1CC(=O)O (stereo not drawn) [Example 2-43, [5-(2-methylsulfinyl-3-thienyl)tetrazol-1-yl] acetic acid] | 
12 | 7.80 | CCCCS(=O)(=O)Nc1ccsc1-c1nnnn1CC(=O)O [Example 2-40, [5-(3-butylsulfonylamino-2-thienyl)tetrazol-1-yl] acetic acid] | 
13 | 7.64 | Cc1ccc(-c2nnnn2CC(=O)O)s1 [Example 2-4, [5-(5-methyl-2-thienyl)tetrazol-1-yl] acetic acid] | 
14 | 7.68 | CCc1ccc(-c2nnnn2CC(=O)O)s1 [Example 2-8, [5-(5-ethyl-2-thienyl)tetrazol-1-yl] acetic acid] | 
15 | 7.46 | CSc1occc1-c1nnnn1CC(=O)O [Example 2-32, [5-(2-methylthio-3-furyl)tetrazol-1-yl] acetic acid] | 
16 | 7.55 | CS(=O)(=O)Nc1ccsc1-c1nnnn1CC(=O)O [Example 2-39, [5-(3-methylsulfonylamino-2-thienyl)tetrazol-1-yl] acetic acid] | 
17 | 6.82 | Cc1ccc(-c2nnnn2CC(=O)O)o1 [Example 2-27, [5-(5-methyl-2-furyl)tetrazol-1-yl] acetic acid] | 
18 | 6.64 | O=C(O)Cn1nnnc1-c1ccc(S(=O)(=O)N2CCCCC2)s1 [Example 2-37, [5-(5-piperidinosulfonyl2-thienyl)tetrazol-1-yl] acetic acid] | 
19 | 7.72 | O=C(O)Cn1nnnc1-c1ccc(Br)s1 [Example 2-11, [5-(5-bromo-1-thienyl)tetrazol-1-yl] acetic acid] | 
20 | 8.00 | Cc1sccc1-c1nnnn1CC(=O)O [Example 2-12, [5-(2-methyl-3-thienyl)tetrazol-1-yl] acetic acid] | 
21 | 7.62 | O=C(O)Cn1nnnc1-c1sccc1NC(=O)CCc1ccccc1 [Example 2-19, [5-(3-phenethylcarbonylamino-2-thienyl)tetrazol-1-yl] acetic acid] | 
22 | 7.42 | O=C(O)Cn1nnnc1-c1ccsc1Br [Example 2-24, [5-(2-bromo-3-thienyl)tetrazol-1-yl] acetic acid] | 
23 | 7.55 | CC(=O)Nc1ccsc1-c1nnnn1CC(=O)O [Example 2-17] | 

Row | pIC50 (aldose reductase) | SMILES | also measured
24 | 7.62 | O=C(O)Cn1nnnc1-c1ccsc1Sc1ccccc1 [Example 2-33, [5-(2-phenylthio-3-thienyl)tetrazol-1-yl] acetic acid] | 
25 | 6.64 | COC(=O)Cn1nnnc1-c1sccc1NS(=O)(=O)c1ccccc1 [Example 1-27, methyl [5-(3-phenylsulfonylamino-2-thienyl)tetrazol-1-yl acetate] | 
26 | 7.59 | O=C(O)Cn1nnnc1-c1ccc(Sc2ccccc2)s1 [Example 2-34, [5-(5-phenylthio-2-thienyl)tetrazol-1-yl] acetic acid] | 
27 | 6.80 | O=C(O)Cn1nnnc1-c1ccc(Br)o1 [Example 2-29, [5-(5-bromo-2-furyl)tetrazol-1-yl] acetic acid] | 
28 | 7.70 | O=C(O)Cn1nnnc1-c1sccc1O [Example 2-42, [5-(3-hydroxy-2-thienyl)tetrazol-1-yl] acetic acid] | 
29 | 6.74 | CCCCc1ccc(-c2nnnn2CC(=O)OC)s1 [Example 3-5, methyl [5-(5-butyl-2-thienyl)tetrazol-1-yl] acetate] | 
30 | 7.68 | O=C(O)Cn1nnnc1-c1ccc(-c2ccccc2)s1 [Example 2-14, [5-(5-phenyl-2-thienyl)tetrazol-1-yl] acetic acid] | 
31 | 7.51 | CSc1sccc1-c1nnnn1CC(=O)O [Example 2-26, [5-(2-methylthio-3-thienyl)tetrazol-1-yl] acetic acid] | 
32 | 6.41 | CCN(CC)S(=O)(=O)c1ccc(-c2nnnn2CC(=O)O)s1 [Example 2-35, [5-[5-(N,N-diethylaminosulfonyl)-2-thienyl]tetrazol-1-yl] acetic acid] | 
33 |  | CC(/C=C1\SC(=S)N(CC(=O)O)C1=O)=C\c1ccccc1 [ONO-2235, (E)-3-carboxymethyl-5-[(2E)-methyl-3-phenylpropenylidene] rhodan, reference compound] | Rate of Inhibition of Sorbitol Accumulation ([1]; 10 mg/kg oral): 0%; Rate of Inhibition of Sorbitol Accumulation ([1]; 30 mg/kg oral): 0%; Rate of Inhibition of Sorbitol Accumulation ([1]; 50 mg/kg oral): 40%
34 | 7.64 | O=C(O)Cn1nnnc1-c1sccc1NS(=O)(=O)c1ccccc1 [Example 2-41, [5-(3-phenylsulfonylamino-2-thienyl)tetrazol-1-yl] acetic acid] | 
35 | 7.22 | O=C(O)Cn1nnnc1-c1ccco1 [Example 2-6, [5-(2-furyl)tetrazol-1-yl] acetic acid] | 
36 | 7.07 | CCCCN(CCCC)S(=O)(=O)c1ccc(-c2nnnn2CC(=O)O)s1 [Example 2-36] | 
37 | 6.13 | COC(=O)Cn1nnnc1-c1ccoc1 [Example 1-7, methyl (5-(3-furyl)tetrazol-1-yl] acetate] | 
38 | 6.02 | COC(=O)Cn1nnnc1-c1ccsc1 [Example 1-5, methyl [5-(3-thienyl)tetrazol-1-yl] acetate] | 
39 | 7.70 | O=C(O)Cn1nnnc1-c1ccc(Cc2ccccc2)s1 [Example 2-9, [5-(5-benzyl-2-thienyl)tetrazol-1-yl] acetic acid] | 
40 | 7.70 | CSc1ccc(-c2nnnn2CC(=O)O)s1 [Example 2-10] | 
41 | 6.96 | CSc1ccc(-c2nnnn2CC(=O)O)o1 [Example 2-30, [5-(5-methylthio-2-furyl)tetrazol-1-yl] acetic acid] | 
42 | 6.89 | CCCCc1ccc(-c2nnnn2CC(=O)O)o1 [Example 2-28, [5-(5-butyl-2-furyl)tetrazol1-yl-] acetic acid] | 
43 | 6.28 | CS(=O)(=O)c1sccc1-c1nnnn1CC(=O)O [Example 2-44, [5-(2-methylsulfonyl-3-thienyl)tetrazol-1-yl] acetic acid] | 
44 | 6.42 | COC(=O)Cn1nnnc1-c1ccsc1SC [Example 3-11, methyl [5-(2-methylthio-3-thienyl)tetrazol-1-yl] acetate] | 
45 | 7.70 | CCCC(=O)Nc1ccsc1-c1nnnn1CC(=O)O [Example 2-18, [5-(3-propylcarbonylamino-2-thienyl)tetrazol-1-yl] acetic acid] | 
46 | 7.07 | O=C(O)Cn1nnnc1-c1ccoc1Br [Example 2-31, [5-(2-bromo-3-furyl)tetrazol-1-yl] scetic acid] | 

Row | SMILES | pIC50 (aldose reductase) | also measured
47 | CCCCOc1ccsc1-c1nnnn1CC(=O)O [Example 2-16, [5-(3-butoxy-2-thienyl)tetrazol-1-yl] acetic acid] | 7.51 | 
48 | CCCCOCc1ccc(-c2nnnn2CC(=O)O)s1 [Example 2-23, [5-(5-butoxymethyl-2-thienyl)tetrazol-1-yl] acetic acid] | 7.60 | 
